Results taken from ChEMBL document CHEMBL1125030, “Boc-Trp-Orn(Z)-Asp-NH2 and derivatives: a new family of CCK antagonists” (J Med Chem, 1990).
Calls of active or inactive are those of the source. No cut-off for these calls is given here. Where a SMILES comes first, the peptide text is derived from it. [ ]: non-standard residue; d: D form. The star is where a group is joined. Phe(4-SO3H) = N[C@@H](Cc1ccc(S(=O)(=O)O)cc1)C(=O)O; sY = N[C@@H](Cc1ccc(OS(=O)(=O)O)cc1)C(=O)O; Nle = CCCC[C@H](N)C(=O)O; Orn = NCCC[C@H](N)C(=O)O; Cbz = O=C(OCc1ccccc1)*; Boc = CC(C)(C)OC(=O)*

What was measured:
[1] = Agonist activity expressed as effective concentration that causes 50% stimulation of amylase release from guinea pig pancreatic acini.; ND means no significant activity at 10e-4 M
[2] = biological target: T1, Cholecystokinin receptor type A (Cavia porcellus, UniProt Q63931); test: Apparent affinity to inhibit binding of [3H]pCCK-8 to Cholecystokinin type A receptor of guinea pig pancreatic membranes
T1 sequence (Q63931 whole entry): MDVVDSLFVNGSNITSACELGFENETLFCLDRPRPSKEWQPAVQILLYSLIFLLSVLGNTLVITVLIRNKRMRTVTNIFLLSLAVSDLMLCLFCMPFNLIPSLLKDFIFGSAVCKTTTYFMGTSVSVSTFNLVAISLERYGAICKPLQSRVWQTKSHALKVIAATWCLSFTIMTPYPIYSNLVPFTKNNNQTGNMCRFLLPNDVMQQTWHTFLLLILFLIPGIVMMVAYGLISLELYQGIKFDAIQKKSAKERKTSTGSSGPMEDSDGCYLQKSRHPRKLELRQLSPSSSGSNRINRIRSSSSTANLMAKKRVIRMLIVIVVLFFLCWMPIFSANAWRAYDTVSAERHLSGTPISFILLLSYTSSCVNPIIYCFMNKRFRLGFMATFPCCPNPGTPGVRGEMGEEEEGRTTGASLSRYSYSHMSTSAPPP

[3] = Antagonist activity expressed as pA2, evaluated from the potency to stimulate amylase release from guinea pig pancreatic acini; assay type: functional, Cavia porcellus
Cavia porcellus [4] = species: Cavia porcellus; test: Antagonist activity expressed as binding constant, evaluated from the potency to stimulate Amylase release from guinea pig pancreatic acini;Not significant
[5] = (§1) Antagonist activity expressed as binding constant, evaluated from the potency to stimulate Amylase release from guinea pig pancreatic acini; parameters: species or system Cavia porcellus
Cavia porcellus [6] = species: Cavia porcellus; test: as §1
[7] = Antagonist activity expressed as binding constant, evaluated from the potency to stimulate Amylase release from guinea pig pancreatic acini;Not significant at 10e-4 M; conditions: Cavia porcellus
[8] = Agonist activity expressed as effective concentration that causes 50% stimulation of amylase release from guinea pig pancreatic acini;Not significant; assay type: functional, Cavia porcellus
[9] = Agonist activity expressed as effective concentration that causes 50% stimulation of amylase release from guinea pig pancreatic acini.; ND means no significant activity at 10e-4 M; assay type: functional, Cavia porcellus
[10] = Agonist activity expressed as effective concentration that causes 50% stimulation of Amylase release from guinea pig pancreatic acini.; ND means no significant activity at 10e-4 M; assay type: functional, Cavia porcellus
[11] = Antagonist activity expressed as pA2, evaluated from the potency to stimulate Amylase release from guinea pig pancreatic acini; assay type: functional, Cavia porcellus
[12] = Agonist activity expressed as effective concentration that causes 50% stimulation of amylase release from guinea pig pancreatic acini; assay type: functional, Cavia porcellus

Row | EC50 [1] | Ki [2] [µM] | pA2 [3] | Kb (Cavia porcellus [6]) [µM] | SMILES | also measured
1 | Not Active | 29 | 4.62 |  | CC(C)(C)OC(=O)NCCC[C@H](NC(=O)[C@H](Cc1c[nH]c2ccccc12)NC(=O)OC(C)(C)C)C(=O)N[C@@H](CC(=O)O)C(N)=O (Boc-Trp-[Orn](Boc)-Asp-NH2) | Kb (Cavia porcellus [4]): 0.23 µM
2 | Not Active | 0.2 | 6.63 |  | CC(C)(C)OC(=O)N[C@@H](Cc1c[nH]c2ccccc12)C(=O)N[C@@H](CCCNC(=O)OCc1ccccc1)C(=O)N[C@@H](CC(=O)O)C(N)=O (Boc-Trp-[Orn](Cbz)-Asp-NH2) | Kb (Cavia porcellus [4]): 0.23 µM
3 |  | 5.2 | 4.58 |  | CC(C)(C)OC(=O)NCCC[C@H](NC(=O)[C@H](Cc1c[nH]c2ccccc12)NC(=O)OC(C)(C)C)C(=O)N[C@@H](CC(=O)O)C(=O)N[C@@H](Cc1ccccc1)C(N)=O (Boc-W[Orn](Boc)DF-NH2) | EC50 [5]: 13.6 µM; Kb (Cavia porcellus [4]): inactive
4 | Not Active | 0.34 | 6.25 | 0.57 | CC(C)(C)OC(=O)N[C@@H](Cc1c[nH]c2ccccc12)C(=O)N[C@@H](CCCNC(=O)OCc1ccccc1)C(=O)N[C@@H](CC(=O)O)C(=O)N[C@@H](Cc1ccccc1)C(N)=O (Boc-W[Orn](Cbz)DF-NH2) | 
5 |  | 14 |  |  | CC(C)(C)OC(=O)N[C@@H](Cc1c[nH]c2ccccc12)C(=O)N[C@@H](CCCN)C(=O)N[C@@H](CC(=O)O)C(=O)N[C@@H](Cc1ccccc1)C(N)=O (Boc-W[Orn]DF-NH2) | Kb [7]: inactive; EC50 [8]: 13.8 µM
6 |  |  |  | 0.49 | CCCC[C@H](NC(=O)[C@H](Cc1ccc(S(=O)(=O)O)cc1)NC(=O)OC(C)(C)C)C(=O)NCC(=O)N[C@@H](Cc1c[nH]c2ccccc12)C(=O)N[C@@H](CCCNC(=O)OCc1ccccc1)C(=O)N[C@@H](CC(=O)O)C(=O)N[C@@H](Cc1ccccc1)C(N)=O (Boc-[Phe(4-SO3H)][Nle]GW[Orn](Cbz)DF-NH2) | 
7 |  | 0.34 |  |  | CCCC[C@H](NC(=O)[C@H](Cc1ccc(OS(=O)(=O)O)cc1)NC(=O)OC(C)(C)C)C(=O)NCC(=O)N[C@@H](Cc1c[nH]c2ccccc12)C(=O)N[C@@H](CCCNC(=O)OCc1ccccc1)C(=O)N[C@@H](CC(=O)O)C(=O)N[C@@H](Cc1ccccc1)C(N)=O (stereo in doubt; 2) | EC50 [12]: 0.022 µM

More lines, now with the values behind:

Row | SMILES | EC50 [1] | Ki [2] [µM] | pA2 [3] | Kb (Cavia porcellus [6]) [µM] | also measured
8 | CC(C)(C)OC(=O)N[C@@H](Cc1c[nH]c2ccccc12)C(=O)N[C@@H](CCCN)C(=O)N[C@@H](CC(=O)O)C(N)=O (Boc-Trp-[Orn]-Asp-NH2) |  | 1000 |  |  | 
9 | CCCC[C@H](NC(=O)[C@H](Cc1ccc(S(=O)(=O)O)cc1)NC(=O)OC(C)(C)C)C(=O)NCC(=O)N[C@@H](Cc1c[nH]c2ccccc12)C(=O)N[C@@H](CCCNC(=O)OC(C)(C)C)C(=O)N[C@@H](CC(=O)O)C(=O)N[C@@H](Cc1ccccc1)C(N)=O (Boc-[Phe(4-SO3H)][Nle]GW[Orn](Boc)DF-NH2) |  | 0.66 | 5.94 | 1.1 | EC50 [9]: Not Active
10 | CCCC[C@H](NC(=O)[C@H](Cc1ccc(S(=O)(=O)O)cc1)NC(=O)OC(C)(C)C)C(=O)NCC(=O)N[C@@H](Cc1c[nH]c2ccccc12)C(=O)N[C@@H](CCCNC(=O)OCc1ccccc1)C(=O)N[C@@H](CC(=O)O)C(N)=O (Boc-[Phe(4-SO3H)][Nle]GW[Orn](Cbz)D-NH2) | Not Active |  |  | 0.22 | 
11 | CCCC[C@H](NC(=O)[C@H](Cc1ccc(OS(=O)(=O)O)cc1)NC(=O)OC(C)(C)C)C(=O)NCC(=O)N[C@@H](Cc1c[nH]c2ccccc12)C(=O)N[C@@H](CCCNC(=O)OCc1ccccc1)C(=O)N[C@@H](CC(=O)O)C(N)=O (Boc-[sY][Nle]GW[Orn](Cbz)D-NH2) |  | 0.23 | 6.64 |  | 
12 | CCCC[C@H](NC(=O)[C@H](Cc1ccc(OS(=O)(=O)O)cc1)NC(=O)OC(C)(C)C)C(=O)NCC(=O)N[C@@H](Cc1c[nH]c2ccccc12)C(=O)N[C@@H](CCCNC(=O)OCc1ccccc1)C(=O)N[C@@H](CC(=O)O)C(=O)N[C@@H](Cc1ccccc1)C(N)=O (stereo in doubt; 1) |  | 0.31 |  |  | EC50 [10]: Not Active; pA2 [11]: 6.32
